Test results published in publication PMC7263640 (Journal of visualized experiments : JoVE, 2019).

Biological target: T1, Olfr1377 (Mus musculus, UniProt B2RQ46)
T1 sequence (B2RQ46 1-307): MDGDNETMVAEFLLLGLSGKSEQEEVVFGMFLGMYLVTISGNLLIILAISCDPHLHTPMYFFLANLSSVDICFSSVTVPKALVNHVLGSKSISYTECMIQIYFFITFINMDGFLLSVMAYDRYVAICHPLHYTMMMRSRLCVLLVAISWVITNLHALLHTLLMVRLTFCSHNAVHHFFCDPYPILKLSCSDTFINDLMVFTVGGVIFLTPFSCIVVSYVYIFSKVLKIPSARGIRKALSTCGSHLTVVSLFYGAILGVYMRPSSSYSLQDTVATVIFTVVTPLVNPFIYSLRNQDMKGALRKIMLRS
Test: GloSensor cAMP luminescence in Hana3A cells, vapor-phase odorant
Type: cell-based

EC50: 161 µM
SMILES: CC(=O)c1ccccc1 [acetophenone]
